# Reference: publication PMC9837035 (Nature Communications, 2023)
# Values joined by “and” are separate entries in the source; they are usually repeats but may differ in a detail not shown here. Identical values can stand only once. Like-named read-outs stand apart in the source and are kept apart here.
# Experiments:
# [1] = biological target: EZH2 (Homo sapiens, UniProt Q15910); assay: Radioisotope-based methyltransferase assay (selectivity)
# [2] = biological target: T1, PRMT3 (Homo sapiens, UniProt O60678); assay: as above; format: biochemical
# T1 construct: purchased Reaction Biology
# T1 sequence (O60678 whole entry): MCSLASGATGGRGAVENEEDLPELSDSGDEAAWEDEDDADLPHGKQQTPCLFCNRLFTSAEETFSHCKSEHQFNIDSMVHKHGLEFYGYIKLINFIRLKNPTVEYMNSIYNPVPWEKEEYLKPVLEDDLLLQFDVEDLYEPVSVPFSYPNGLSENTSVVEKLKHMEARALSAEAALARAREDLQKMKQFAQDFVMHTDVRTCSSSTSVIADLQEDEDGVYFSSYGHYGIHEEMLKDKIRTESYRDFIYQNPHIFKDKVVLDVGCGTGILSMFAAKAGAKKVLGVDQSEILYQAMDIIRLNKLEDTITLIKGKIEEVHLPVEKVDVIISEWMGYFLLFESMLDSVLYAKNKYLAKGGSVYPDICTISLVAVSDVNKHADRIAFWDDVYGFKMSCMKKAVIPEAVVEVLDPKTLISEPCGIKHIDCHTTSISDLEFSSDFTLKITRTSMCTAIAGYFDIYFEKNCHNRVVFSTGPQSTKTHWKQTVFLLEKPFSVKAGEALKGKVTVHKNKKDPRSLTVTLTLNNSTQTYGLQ
# [3] = biological target: T2, MLL1 (Homo sapiens, UniProt Q03164); assay: as above; format: biochemical
# T2 construct: purchased Reaction Biology
# [4] = Aqueous solubility; format: physicochemical; parameters: Solubility in PBS (pH = 7.4): unit: uM; settings: for solubility at 1 h: phosphate buffer
# Method: The direct UV kinetic solution method was performed in duplicate. A 10 mM DMSO solution of compound was added to a microtube containing aqueous pH 7.4 or pH 6.8 phosphate buffer solution (maximum concentration: 200 μM). The solution mixture was vigorously shaken at ambient temperature for 1 h. The precipitate was removed by centrifugal separation, and the UV absorbance of the supernatant and the standard solution prepared by the test compound for calibration were measured in duplicate using a 96-well UV plate reader, SPECTRA MAX190 (Molecular Devices).
# [5] = biological target: EZH2 (Y641F) (Homo sapiens, UniProt Q15910, Y641F); assay: Radioisotope-based methyltransferase assay (selectivity)
# EZH2 (Y641F), sequence (Q15910 whole entry Y641F): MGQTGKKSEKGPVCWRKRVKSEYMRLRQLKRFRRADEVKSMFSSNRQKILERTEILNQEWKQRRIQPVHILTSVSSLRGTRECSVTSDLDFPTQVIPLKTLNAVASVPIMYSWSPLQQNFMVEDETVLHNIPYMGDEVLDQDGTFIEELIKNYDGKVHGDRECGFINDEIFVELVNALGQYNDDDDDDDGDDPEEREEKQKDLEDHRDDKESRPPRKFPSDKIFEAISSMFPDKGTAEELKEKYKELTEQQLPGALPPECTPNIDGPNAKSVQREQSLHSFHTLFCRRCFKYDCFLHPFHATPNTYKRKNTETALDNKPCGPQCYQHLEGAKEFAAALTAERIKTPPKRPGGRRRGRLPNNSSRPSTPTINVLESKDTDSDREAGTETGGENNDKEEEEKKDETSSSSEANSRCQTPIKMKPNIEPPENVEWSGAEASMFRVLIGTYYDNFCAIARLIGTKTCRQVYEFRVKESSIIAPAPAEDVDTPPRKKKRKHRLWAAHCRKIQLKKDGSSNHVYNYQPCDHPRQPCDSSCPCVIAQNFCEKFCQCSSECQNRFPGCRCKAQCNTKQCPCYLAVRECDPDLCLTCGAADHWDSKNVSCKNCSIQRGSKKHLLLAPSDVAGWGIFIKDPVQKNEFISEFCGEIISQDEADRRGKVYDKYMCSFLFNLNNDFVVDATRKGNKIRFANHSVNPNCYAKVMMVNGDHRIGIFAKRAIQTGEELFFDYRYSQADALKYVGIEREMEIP
# EZH2 (Y641F), sequence (O75530 whole entry partner): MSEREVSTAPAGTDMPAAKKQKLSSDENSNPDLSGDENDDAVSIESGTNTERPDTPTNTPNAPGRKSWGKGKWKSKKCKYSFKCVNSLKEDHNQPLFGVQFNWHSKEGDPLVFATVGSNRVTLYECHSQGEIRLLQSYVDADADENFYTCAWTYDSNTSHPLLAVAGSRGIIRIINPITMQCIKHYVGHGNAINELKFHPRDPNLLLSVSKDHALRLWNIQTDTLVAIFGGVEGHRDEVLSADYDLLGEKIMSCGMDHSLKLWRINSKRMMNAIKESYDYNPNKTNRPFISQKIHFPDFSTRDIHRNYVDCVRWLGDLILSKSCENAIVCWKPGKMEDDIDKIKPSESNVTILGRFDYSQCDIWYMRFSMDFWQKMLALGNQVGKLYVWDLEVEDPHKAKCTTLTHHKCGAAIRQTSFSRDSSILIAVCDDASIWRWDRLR
# EZH2 (Y641F), sequence (Q15022 whole entry partner): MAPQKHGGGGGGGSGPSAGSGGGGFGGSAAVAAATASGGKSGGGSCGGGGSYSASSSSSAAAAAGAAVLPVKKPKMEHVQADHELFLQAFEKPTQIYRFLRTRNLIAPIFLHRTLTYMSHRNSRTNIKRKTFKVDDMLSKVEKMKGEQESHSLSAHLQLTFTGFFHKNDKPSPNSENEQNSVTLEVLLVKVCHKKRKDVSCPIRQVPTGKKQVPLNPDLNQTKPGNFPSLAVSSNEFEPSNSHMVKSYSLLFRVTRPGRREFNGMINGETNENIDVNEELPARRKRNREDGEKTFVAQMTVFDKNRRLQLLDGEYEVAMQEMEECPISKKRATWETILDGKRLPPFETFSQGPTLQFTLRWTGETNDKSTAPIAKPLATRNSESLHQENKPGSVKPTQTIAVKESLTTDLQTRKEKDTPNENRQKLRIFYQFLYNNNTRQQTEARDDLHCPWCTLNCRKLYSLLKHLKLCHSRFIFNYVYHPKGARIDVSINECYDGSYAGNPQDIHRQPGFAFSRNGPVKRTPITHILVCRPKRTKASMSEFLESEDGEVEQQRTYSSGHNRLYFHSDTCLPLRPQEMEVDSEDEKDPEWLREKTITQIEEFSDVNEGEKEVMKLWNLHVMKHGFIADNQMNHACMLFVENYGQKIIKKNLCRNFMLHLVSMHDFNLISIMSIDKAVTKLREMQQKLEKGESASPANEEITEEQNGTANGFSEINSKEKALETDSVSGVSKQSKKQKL
# EZH2 (Y641F), sequence (Q09028 whole entry partner): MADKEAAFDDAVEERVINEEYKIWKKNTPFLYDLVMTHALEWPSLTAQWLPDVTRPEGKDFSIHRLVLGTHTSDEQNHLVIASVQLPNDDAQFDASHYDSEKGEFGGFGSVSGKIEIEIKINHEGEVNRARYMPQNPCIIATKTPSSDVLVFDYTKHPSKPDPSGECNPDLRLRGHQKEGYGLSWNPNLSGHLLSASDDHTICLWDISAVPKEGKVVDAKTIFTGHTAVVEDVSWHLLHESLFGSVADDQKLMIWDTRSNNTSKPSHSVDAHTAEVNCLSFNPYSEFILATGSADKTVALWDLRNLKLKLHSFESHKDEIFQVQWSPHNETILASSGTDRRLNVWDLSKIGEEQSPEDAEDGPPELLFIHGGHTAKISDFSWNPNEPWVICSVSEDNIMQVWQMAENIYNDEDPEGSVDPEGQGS
# EZH2 (Y641F), sequence (Q6ZN18 whole entry partner): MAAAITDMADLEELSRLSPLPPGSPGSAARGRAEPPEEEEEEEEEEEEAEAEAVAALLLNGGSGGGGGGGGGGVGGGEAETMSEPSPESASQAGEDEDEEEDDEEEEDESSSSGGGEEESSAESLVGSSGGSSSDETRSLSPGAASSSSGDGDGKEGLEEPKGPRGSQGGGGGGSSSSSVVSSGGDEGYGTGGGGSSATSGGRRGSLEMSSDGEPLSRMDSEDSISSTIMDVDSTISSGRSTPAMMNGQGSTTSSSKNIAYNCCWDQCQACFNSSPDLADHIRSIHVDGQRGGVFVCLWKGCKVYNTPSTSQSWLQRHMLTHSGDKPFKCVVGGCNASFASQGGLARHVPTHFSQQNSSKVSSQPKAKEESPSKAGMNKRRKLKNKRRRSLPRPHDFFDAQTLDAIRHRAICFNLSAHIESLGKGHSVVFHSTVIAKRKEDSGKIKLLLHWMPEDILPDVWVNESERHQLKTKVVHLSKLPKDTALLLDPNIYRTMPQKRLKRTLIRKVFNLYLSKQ
# [6] = biological target: T3, G9a (Homo sapiens, UniProt Q96KQ7); assay: In vitro G9a methyltransferase assay (AlphaLISA-based); format: biochemical; parameters: purchased BPS Bioscience
# T3 sequence (Q96KQ7 1-1210): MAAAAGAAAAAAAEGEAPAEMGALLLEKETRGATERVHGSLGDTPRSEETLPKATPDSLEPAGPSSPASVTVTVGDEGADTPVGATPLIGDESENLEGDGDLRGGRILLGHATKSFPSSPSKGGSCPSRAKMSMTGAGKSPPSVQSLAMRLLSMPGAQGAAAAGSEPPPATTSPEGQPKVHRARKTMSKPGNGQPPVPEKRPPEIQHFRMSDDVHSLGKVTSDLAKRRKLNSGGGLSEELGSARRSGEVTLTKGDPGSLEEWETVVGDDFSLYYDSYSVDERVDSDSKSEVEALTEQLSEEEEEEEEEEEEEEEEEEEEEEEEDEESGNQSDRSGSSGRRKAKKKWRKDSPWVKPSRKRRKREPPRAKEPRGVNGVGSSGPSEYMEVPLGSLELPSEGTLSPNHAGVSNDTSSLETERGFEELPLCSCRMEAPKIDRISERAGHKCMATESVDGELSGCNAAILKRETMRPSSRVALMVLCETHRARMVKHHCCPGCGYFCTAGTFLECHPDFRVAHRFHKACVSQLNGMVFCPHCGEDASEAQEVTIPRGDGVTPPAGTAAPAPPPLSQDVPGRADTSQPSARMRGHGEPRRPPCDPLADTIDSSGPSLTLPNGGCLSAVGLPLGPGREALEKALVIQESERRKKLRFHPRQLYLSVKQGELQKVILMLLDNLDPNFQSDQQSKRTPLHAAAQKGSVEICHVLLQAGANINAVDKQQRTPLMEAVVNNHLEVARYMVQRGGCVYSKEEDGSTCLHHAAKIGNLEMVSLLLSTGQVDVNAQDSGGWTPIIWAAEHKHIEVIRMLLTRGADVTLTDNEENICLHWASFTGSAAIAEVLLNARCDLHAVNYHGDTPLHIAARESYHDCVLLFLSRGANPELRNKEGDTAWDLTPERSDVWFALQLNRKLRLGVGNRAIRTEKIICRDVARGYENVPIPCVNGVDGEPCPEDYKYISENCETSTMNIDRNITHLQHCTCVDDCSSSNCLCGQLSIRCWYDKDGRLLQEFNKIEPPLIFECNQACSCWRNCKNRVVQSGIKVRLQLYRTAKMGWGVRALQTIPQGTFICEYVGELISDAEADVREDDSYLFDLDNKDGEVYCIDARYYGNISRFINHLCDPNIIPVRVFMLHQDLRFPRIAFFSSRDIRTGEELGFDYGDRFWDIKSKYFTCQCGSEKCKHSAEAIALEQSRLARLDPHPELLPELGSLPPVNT
# Method: An amplified luminescence proximity homogeneous assay (ALPHA) was performed with a modified version of a previously described method. Recombinant G9a proteins (BPS Bioscience) were incubated with 15 μM S-adenosyl-methionine (Sigma) and 50 nM biotinylated histone H3 (1-21; AnaSpec) in the assay buffer (50 mM Tris-HCl (pH 9.0), 50 mM NaCl, 0.01% Tween-20, and 1 mM DTT). After incubation at room temperature for 1 h, AlphaLISA anti-H3K9me2 acceptor beads (final concentration 10 μg/mL, PerkinElmer, AL117C) and AlphaScreen streptavidin donor beads (final concentration 10 μg/mL, PerkinElmer, 6760002B) were added and incubated for an additional 1 h prior to detection of the alpha signal with an EnSpire Alpha plate reader (PerkinElmer). ALPHA profile was analyzed using Origin (OriginLab).
# [7] = biological target: DNMT3b (Homo sapiens, UniProt Q9UBC3); assay: biochemical
# [8] = G9a activity, 0.016 μM, single experiment
# [9] = G9a activity, 0.08 μM, single experiment
# [10] = G9a activity, 0.4 μM, single experiment
# [11] = G9a activity, 2 μM, single experiment
# [12] = G9a activity, single experiment
# [13] = G9a activity, 10 μM, single experiment
# [14] = G9a activity, 50 μM, single experiment
# EZH2, sequence (Q15910 whole entry): as the sequence (Q15910 whole entry Y641F) above, with F641Y counted along it
# EZH2, sequence (O75530 whole entry partner): as the sequence (O75530 whole entry partner) above
# EZH2, sequence (Q15022 whole entry partner): as the sequence (Q15022 whole entry partner) above
# EZH2, sequence (Q09028 whole entry partner): as the sequence (Q09028 whole entry partner) above
# EZH2, sequence (Q6ZN18 whole entry partner): as the sequence (Q6ZN18 whole entry partner) above
SMILES,"IC50 ([2]; PRMT3, 1 μM SAM) [nM]","IC50 ([2]; PRMT3, RK-701 in duplicate) [nM]","IC50 ([3]; MLL1, 1 μM SAM) [nM]","IC50 ([3]; MLL1, RK-701 in duplicate) [nM]",IC50 ([6]; G9a),"Inhibition % [6, 8]","Inhibition % [6, 9]","Inhibition % [6, 11]","inhibition at 2 µM [6, 11] [%]","IC50 [6, 12]",IC50 [7] [nM],other results
Cc1c(C(=O)NC(CCC2CC2)C(=O)Nc2ccc(C#N)cc2)[nH]c2c1C(=O)CC(C)(C)C2 (stereo not drawn) [RK-701],> 100000,> 100000,> 100000,> 100000,23 to 27 nM and 27 nM,30.3347% and 30.0776%,81.1273% and 81.8822%,99.979% and 99.9697%,100,24.8 nM and 29 nM and 28.5 nM,> 100000,"IC50 [1]: > 100000 nM; Solubility in PBS (pH = 6.8) ([4]; PBS pH = 6.8, replicate values): 31.5 and 23.5 and 26.4; Solubility in PBS (pH = 7.4) ([4]; PBS pH = 7.4, replicate values): 10.4542 and 12.4313 and 11.5534 and 10.9261 and 15.3115 and 10.1928 and 7.42 and 8.729; solubility at 1 h ([4]; pH 6.8, PBS pH = 6.8, replicate values, read-out: Solubility in PBS (pH = 6.8)): 23.9 µM; solubility at 1 h ([4]; pH 6.8, pH6.8, read-out: Solubility in PBS): 26.3 ± 3.2 µM; solubility at 1 h ([4]; pH 7.4, pH7.4, read-out: Solubility in PBS): 10.9 ± 2.2 µM; IC50 [5]: > 100000 nM; Inhibition % ([6]; G9a activity, 0.00064 μM, single experiment): 6.475% and 0%; inhibition at 0.016 µM [6, 8]: 35.6%; inhibition at 0.08 µM [6, 9]: 82.3%; Inhibition % [6, 10]: 98.9416% and 99.213%; inhibition at 0.4 µM [6, 10]: 99.3%"
Cc1c(C(=O)N[C@H](CCC2CC2)C(=O)Nc2ccc(C#N)cc2)[nH]c2c1C(=O)CC(C)(C)C2 [RK-0133114],,,,,3700 nM,4.31% and 2.981% and 0%,0% and 8.43%,32.9012% and 25.4405%,42.7,3010 nM and 3620 nM and 4440 nM,,"Inhibition % ([6]; G9a activity, 0.0032 μM, single experiment): 9.4545% and 6.383% and 0%; Inhibition % [6, 13]: 77.5611% and 74.8715%; inhibition at 10 µM [6, 13]: 74.3%; Inhibition % [6, 14]: 96.0953% and 94.6907%; inhibition at 50 µM [6, 14]: 97.9%"
"Nc1ncnc2c1ncn2[C@@H]1O[C@H](CSCC[C@H](N)C(=O)O)[C@@H](O)[C@H]1O [SAH, S-(5'-Adenosyl)-L-homocysteine, reference compound]",2400,2440,1300,1310,,,,,,,112,
